Results reported in patent US12404239B2, “Modulators of BCL6 as ligand directed degraders” (Celgene Corporation, priority 2022, dated 2025).

Target: T1, BCL6 (Homo sapiens, UniProt P41182)
T1 construct: HiBiT-tag knocked into endogenous BCL6 locus using CRISPR; endogenous in cells; host or cells: DHL-4_BCL6_HiBiT cells (CRISPR knock-in)
Assay: BCL6_HiBiT degradation assay (2 h)
Format: cell-based
Conditions: DHL-4_BCL6_HiBiT cells, read-out: YCon (% remaining maximal effect)
Method in brief: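 DHL-4 cells carrying CRISPR HiBiT knock-in at endogenous BCL6, treated 2 h at 37 °C with 10-point 3-fold dilutions from 1-10 μM. BCL6 level read by Nano-Glo HiBiT lytic luminescence normalized to DMSO; four-parameter fit gives degradation EC50 and Yconstant (% remaining at maximal effect).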

Compound	Percent BCL6 remaining at maximal degradation (Ycon) [%]
C[C@@H]1CN(c2ncc(C#N)c(Nc3ccc4c(c3F)CC(=O)N4C)n2)CC[C@H]1Nc1ccc2c(C3CCC(=O)NC3=O)nn(C)c2c1 (stereo partly drawn) [Example 118, 2-((3R,4R)-4-((3-(2,6-dioxopiperidin-3-yl)-1-methyl-1H-indazol-6-yl)amino)-3-methylpiperidin-1-yl)-4-((4-fluoro-1-methyl-2-oxoindolin-5-yl)amino)pyrimidine-5-carbonitrile]	< 20
CN1C(=O)Cc2cc(Nc3nc(N4CC[C@@H](Nc5ccc6c(C7CCC(=O)NC7=O)nn(C)c6n5)[C@H](O)C4)ncc3Cl)ccc21 (stereo partly drawn) [Example 55, 3-(6-(((3R,4R)-1-(5-chloro-4-((1-methyl-2-oxoindolin-5-yl)amino)pyrimidin-2-yl)-3-hydroxypiperidin-4-yl)amino)-1-methyl-1H-pyrazolo[3,4-b]pyridin-3-yl)piperidine-2,6-dione]	20 to 60
C[C@@H]1CN(c2ncc(Cl)c(Nc3ccc4c(c3)CC(=O)N4CC(C)(F)F)n2)CC[C@H]1Nc1ccc2c([C@@H]3CCC(=O)NC3=O)nn(C)c2c1 (single isomer, unassigned) [Example 112]	< 20
C[C@@H]1CN(c2ncc(Cl)c(Nc3ccc4c(c3)CC(=O)N4CC(C)(F)F)n2)CC[C@H]1Nc1ccc2c([C@H]3CCC(=O)NC3=O)nn(C)c2c1 (single isomer, unassigned) [Example 111]	< 20
Cn1nc(N2CCC(=O)NC2=O)c2ccc(NC3CCN(c4ncc(Cl)c(Nc5ccc6c(c5)CC(=O)N6CCO)n4)CC3)cc21 [Example 137, 1-(6-((1-(5-chloro-4-((1-(2-hydroxyethyl)-2-oxoindolin-5-yl)amino)pyrimidin-2-yl)piperidin-4-yl)amino)-1-methyl-1H-indazol-3-yl)dihydropyrimidine-2,4(1H,3H)-dione]	20 to 60
CCN1C(=O)Cc2cc(Nc3nc(N4CCC(Nc5ccc6c([C@@H]7CCC(=O)NC7=O)nn(C)c6c5)CC4)ncc3Cl)ccc21 (single isomer, unassigned) [Example 91]	> 60
C[C@@H]1CN(c2ncc(Cl)c(Nc3ccc4c(c3)CC(=O)N4C)n2)CC[C@H]1Nc1ccc2c(-n3cc(F)c(=O)[nH]c3=O)nn(C)c2c1 [Example 140, 1-(6-(((3R,4R)-1-(5-chloro-4-((1-methyl-2-oxoindolin-5-yl)amino)pyrimidin-2-yl)-3-methylpiperidin-4-yl)amino)-1-methyl-1H-indazol-3-yl)-5-fluoropyrimidine-2,4(1H,3H)-dione]	< 20
CN1C(=O)Cc2cc(Nc3nc(N4CCC(Nc5ccc6c(C7CCC(=O)NC7=O)nn(C)c6c5)CC4)ncc3C#N)ccc21 (stereo not shown) [Example 36, 2-(4-((3-(2,6-dioxopiperidin-3-yl)-1-methyl-1H-indazol-6-yl)amino)piperidin-1-yl)-4-((1-methyl-2-oxoindolin-5-yl)amino)pyrimidine-5-carbonitrile]	> 60
CN1C(=O)Cc2cc(Nc3nc(NC4CCN(c5ccc6c(N7CCC(=O)NC7=O)nn(C)c6c5)CC4)ncc3Cl)ccc21 [Example 133, 1-(6-(4-((5-chloro-4-((1-methyl-2-oxoindolin-5-yl)amino)pyrimidin-2-yl)amino)piperidin-1-yl)-1-methyl-1H-indazol-3-yl)dihydropyrimidine-2,4(1H,3H)-dione]	> 60

Other lines, results leading:

Percent BCL6 remaining at maximal degradation (Ycon) [%]	Compound
20 to 60	CN1C(=O)Cc2cc(Nc3nc(N4CC[C@H](Nc5ccc6c(C7CCC(=O)NC7=O)nn(C)c6c5)[C@H](CO)C4)ncc3Cl)ccc21 (stereo partly drawn) [Example 58, 3-(6-(((3R,4S)-1-(5-chloro-4-((1-methyl-2-oxoindolin-5-yl)amino)pyrimidin-2-yl)-3-(hydroxymethyl)piperidin-4-yl)amino)-1-methyl-1H-indazol-3-yl)piperidine-2,6-dione]
> 60	CN1C(=O)Cc2cc(Nc3nc(N4CCN(c5ccc6c(C7CCC(=O)NC7=O)nn(C)c6c5)CC4)ncc3Cl)ccc21 (stereo not shown) [Example 35, 3-[6-[4-[5-chloro-4-[(1-methyl-2-oxo-indolin-5-yl)amino]pyrimidin-2-yl]piperazin-1-yl]-1-methyl-indazol-3-yl]piperidine-2,6-dione]
< 20	CN1C(=O)Cc2cc(Nc3nc(N(C)C4CCN(c5ccc6c(C7CCC(=O)NC7=O)nn(C)c6c5)C5(CCC5)C4)ncc3Cl)ccc21 (stereo not shown) [Example 2, 3-(6-(8-((5-chloro-4-((1-methyl-2-oxoindolin-5-yl)amino)pyrimidin-2-yl)(methyl)amino)-5-azaspiro[3.5]nonan-5-yl)-1-methyl-1H-indazol-3-yl)piperidine-2,6-dione]
< 20	CN1C(=O)Cc2cc(Nc3nc(N(C)[C@@H]4CCN(c5ccc6c(C7CCC(=O)NC7=O)nn(C)c6c5)C(=O)C4)ncc3Cl)ccc21 (single isomer, unassigned) [Example 129]
20 to 60	C[C@H]1C[C@@H](Nc2ccc3c(C4CCC(=O)NC4=O)nn(C)c3c2)CCN1c1ncc(Cl)c(Nc2ccc3c(c2)CC(=O)N3C)n1 (stereo partly drawn) [Example 19, 3-(6-(((2S,4S)-1-(5-chloro-4-((1-methyl-2-oxoindolin-5-yl)amino)pyrimidin-2-yl)-2-methylpiperidin-4-yl)amino)-1-methyl-1H-indazol-3-yl)piperidine-2,6-dione]
> 60	CN1C(=O)Cc2cc(Nc3nc(N4CC[C@H](Nc5ccc6c(C7CCC(=O)NC7=O)nn(C)c6c5)[C@H](C(F)(F)F)C4)ncc3Cl)ccc21 (relative stereo) [Example 147, rel-3-(6-(((3R,4S)-1-(5-chloro-4-((1-methyl-2-oxoindolin-5-yl)amino)pyrimidin-2-yl)-3-(trifluoromethyl)piperidin-4-yl)amino)-1-methyl-1H-indazol-3-yl)piperidine-2,6-dione]
20 to 60	CN1C(=O)Cc2cc(Nc3nc(N4CCC(Nc5ccc6c(C7CCC(=O)NC7=O)nn(C)c6c5)CC45CCC5)ncc3Cl)ccc21 (stereo not shown) [Example 1, 3-(6-((5-(5-chloro-4-((1-methyl-2-oxoindolin-5-yl)amino)pyrimidin-2-yl)-5-azaspiro[3.5]nonan-8-yl)amino)-1-methyl-1H-indazol-3-yl)piperidine-2,6-dione]
20 to 60	C[C@H]1C[C@@H](N(C)c2ncc(Cl)c(Nc3ccc4c(c3)CC(=O)N4C)n2)CCN1c1ccc2c(C3CCC(=O)NC3=O)nn(C)c2c1 (stereo partly drawn) [Example 20, 3-(6-((2S,4S)-4-((5-chloro-4-((1-methyl-2-oxoindolin-5-yl)amino)pyrimidin-2-yl)(methyl)amino)-2-methylpiperidin-1-yl)-1-methyl-1H-indazol-3-yl)piperidine-2,6-dione]

Target: T1, BCL6
Assay: 24 h degradation assay (BCL6 HiBiT)
Format: cell-based
Conditions: read-out: YCon (% remaining maximal effect)
Procedure: A DHL-4 cell line with HiBiT-tag knocked into endogenous BCL6 locus using CRISPR was generated. The DHL-4_BCL6_HiBiT cells were dispensed into 384-well plates (Corning no. 3570) that were pre-spotted with compounds. Compounds were dispensed by an acoustic dispenser (ATS acoustic transfer system from EDC Biosystems) into a 384-well plate in a 10-point dose response curve using 3-fold dilutions starting at 1-10 μM and going down to 0.0015-0.00015 μM. 25 μL of media (RPMI-1640+10% heat inactivated FBS+1×Pen/Strep) containing 2500 of DHL-4 was dispensed per well. […] After incubation, 25 μL of the Nano-Glo HiBiT lytic detection working solution (Promega, catalogue no. N3040, Madison, WI) was added to each well and incubated at room temperature for 15-30 min, protected from light. After 30 min, luminescence was read on an Envision or PHERAstar luminescence reader. To determine the EC50 value (the half-maximum effective concentration) and the level of the gradation (Yconstant) of a BCL6 degrader, luminescent signal normalized by DMSO control (Y) and compound concentration (x) was fitted using a four-parameter dose-response model (Y=(A+((B−A)/1+((C/x)^D) in Dotmatics. Fitted value C is the degradation EC50 and the minimum value A is the Y constant.

Emax [%]	Compound
20 to 60	CO[C@@H]1CN(c2ncc(C#N)c(Nc3ccc4c(c3)CC(=O)N4C)n2)CC[C@H]1Nc1ccc2c(C3CCC(=O)NC3=O)nn(C)c2c1 (stereo partly drawn) [Example 145, 2-((3R,4R)-4-((3-(2,6-dioxopiperidin-3-yl)-1-methyl-1H-indazol-6-yl)amino)-3-methoxypiperidin-1-yl)-4-((1-methyl-2-oxoindolin-5-yl)amino) pyrimidine-5-carbonitrile]
< 20	C[C@H]1C[C@H](N(C)c2ncc(Cl)c(Nc3ccc4c(c3)CC(=O)N4C)n2)CC(=O)N1c1ccc2c(C3CCC(=O)NC3=O)nn(C)c2c1 (stereo partly drawn) [Example 153, 3-(6-((2S,4S)-4-((5-chloro-4-((1-methyl-2-oxoindolin-5-yl)amino)pyrimidin-2-yl)(methyl)amino)-2-methyl-6-oxopiperidin-1-yl)-1-methyl-1H-indazol-3-yl) piperidine-2,6-dione]
< 20	C[C@@H]1C[C@@H](N(C)c2ncc(Cl)c(Nc3ccc4c(c3)CC(=O)N4C)n2)CC(=O)N1c1ccc2c(C3CCC(=O)NC3=O)nn(C)c2c1 (stereo partly drawn) [Example 151, 3-(6-((2R,4R)-4-((5-chloro-4-((1-methyl-2-oxoindolin-5-yl)amino)pyrimidin-2-yl)(methyl)amino)-2-methyl-6-oxopiperidin-1-yl)-1-methyl-1H-indazol-3-yl) piperidine-2,6-dione]
> 60	C[C@H]1C[C@@H](N(C)c2ncc(Cl)c(Nc3ccc4c(c3)CC(=O)N4C)n2)CC(=O)N1c1ccc2c(C3CCC(=O)NC3=O)nn(C)c2c1 (stereo partly drawn) [Example 152, 3-(6-((2S,4R)-4-((5-chloro-4-((1-methyl-2-oxoindolin-5-yl)amino)pyrimidin-2-yl)(methyl)amino)-2-methyl-6-oxopiperidin-1-yl)-1-methyl-1H-indazol-3-yl) piperidine-2,6-dione]
20 to 60	C[C@@H]1C[C@H](N(C)c2ncc(Cl)c(Nc3ccc4c(c3)CC(=O)N4C)n2)CC(=O)N1c1ccc2c(C3CCC(=O)NC3=O)nn(C)c2c1 (stereo partly drawn) [Example 150, 3-(6-((2R,4S)-4-((5-chloro-4-((1-methyl-2-oxoindolin-5-yl)amino)pyrimidin-2-yl)(methyl)amino)-2-methyl-6-oxopiperidin-1-yl)-1-methyl-1H-indazol-3-yl) piperidine-2,6-dione]
